In US20110251135A1, “INHIBITORS OF PERITONEAL SEEDING OF CANCER CELLS” (University of Utah Research Foundation, priority 2008, published 2011):

Assays:
[1] = test system: HCT-116 xenografts; test: Subcutaneous colon cancer xenograft in athymic mice; assay type: in vivo, mouse; details: HCT-116 subcutaneous xenografts; BAY 11-7085 1 mg/kg twice weekly for 28 days vs DMSO
Experimental: (§1) DLD-1, HCT-116, and HT-29 cells were cultured for 6 days in soft agar in the presence of DMSO (control), 10 μM BAY 11-7082, or 10 μM BAY 11-7085. The data points represent the means of colony counts per field (20×) performed in 5 different regions of the culture dishes. The data shown represent a typical result of two separate experiments. FIG. 2B and FIG. 2C are graphs that show athymic mice received subcutaneous injections of HT-29 (FIG. B) or HCT-116 (FIG. C) cells, followed by […] of BAY 11-7085 (dark bars) or DMSO (white bars) intraperitoneally twice weekly. The bars represent the 25-75% ranges of the tumor volumes and the horizontal lines in the bars are the medians. Using the Kruskal-Wallace statistical test to compare the median tumor volumes between BAY 11-7085 and DMSO yielded a p-value of 0.005 for HT-29 cells but >0.05 for HCT-116 cells.
(§2) HT-29 and HCT-116 cells were harvested in 0.25% trypsin-PBS-EDTA, washed once in media and PBS, and resuspended in PBS at 1 million cells per 200 μL. One million cells were injected either subcutaneously in the backs or intraperitoneally in 5 week old female nu/nu athymic mice (Charles River Labs). For the mice with subcutaneous tumors, the tumors were allowed to establish themselves for 10 days after which they were randomized to BAY 11-7085 or DMSO. For the mice with intraperitoneal tumors, the mice received DMSO or BAY 11-7085 (5 mg/kg) 24 hours before the cancer cells were injected intraperitoneally. […] Subcutaneous tumor sizes were determined by measuring the length and width with calipers. These studies were approved by the University of Utah Institutional Review Board and Institutional Animal Care and Use Committee and performed in the Animal Resource Center. Mice were euthanized when they experienced a greater than 10% loss in body weight or if they appeared ill. Post-mortem examinations included sectioning of kidney, lung, and liver tissues which were stained with hematoxylin and eosin followed by examination for tissue toxicity/damage by an experienced mouse pathologist (E.J.E.) who was blinded to therapy.
(§3) HCT-116 and HT-29 cell lines were used to generate subcutaneous tumors in athymic female mice. The mice were subsequently randomized to be treated with vehicle (DMSO) alone or BAY 11-7085 […] twice weekly for 28 days.

[2] = test system: HT-29 xenografts; test: as above; assay type: in vivo, mouse
Experimental: as §1, §2, §3

[3] = test system: HCT-116 cells transfected with human c-FLIP or empty vector; test: Annexin V-FITC assay, readhesion of HCT-116 cells transfected with human c-FLIP or empty vector; assay type: cell-based; details: readhesion 8 hours
Experimental: Since HCT-116 colon cancer cells have relatively low levels of FLIP compared with other cancer cell lines (FIG. 13A), they were transfected with human c-FLIP. HCT-116 cells that were transfected with human c-FLIP or empty vector were transiently suspended and allowed to readhere in the presence of BAY 11-7085 for 8 hours. […] Thus, FLIP appears to be an important target of BAY 11-7085 and is able to inhibit BAY 11-7085-mediated apoptosis during colon cancer cell readhesion.

[4] = test system: TRAF-1 and TRAF-2; test: Immunoblot of anti-apoptotic proteins in HT-29 cells; assay type: cell-based, human; details: 20 μM for 8 hours
Experimental: (§4) The data points represent the means of triplicate experiments and the error bars the standard errors of the means. […] The percent of apoptotic cells was then determined by the annexin V assay. […] The results shown are typical of two separate experiments. […] Immunoblots were performed for c-IAP-2, TRAF-1, TRAF-2, and FLIP. All lanes contain equal total protein.
(§5) The cells were washed twice in ice cold PBS and then lysed in 4° C. lysis buffer (50 mM HEPES, 150 mM NaCl, 1.5 mM MgCl2, 1 mM EGTA, 100 mM NaF, 10 mM Na2PO4, 1 mM Na3VO4, 10% glycerol, 1% TRITON™ X-100, and 1 μg/mL each of aprotinin, leupeptin, chymostatin, pepstatin) and clarified at 12,000 rpm at 4° C. for 15 minutes. The lysates were normalized for total protein concentration. Aliquots of the lysates were then mixed 1:1 in sample buffer (125 mM Tris-HCl (pH 6.8), 20% glycerol, 4% sodium dodecyl sulfate, 2% β-mercaptoethanol, 10 μg/mL bromophenol blue) and boiled for 3 minutes. The samples were loaded onto SDS-PAGE gels (7.5 or 10% acrylamide). […]
(§6) For immunodetection, the blocked blots were probed with primary antibody for 2 hours at 4° C. on a rocker. […] Alkaline phosphatase was detected by a colorimetric reaction using a BCIP (5-bromo-4-chloro-3-indolyl phosphate)/NBT (nitroblue tetrazolium) kit (Zymed).

[5] = test system: c-IAP-1; test: as above; assay type: cell-based, human; details: transiently suspended or adherent HT-29; 20 μM for 8 hours
Experimental: as §4, §5, §6

CC(C)(C)c1ccc(S(=O)(=O)/C=C/C#N)cc1 [BAY 11-7085, (2E)-3-[4-(tertiarybutylphenyl)sulfonyl]-2-propenenitrile]
tumor volumes vs control group [1]: no statistically significant overall difference in the tumor volumes
tumor volumes vs control group ([2]; HT-29 subcutaneous xenografts, BAY 11-7085 1 mg/kg twice weekly for 28 days vs DMSO): statistically significant overall reduction in the tumor volumes
colon cancer xenograft growth ([2]; athymic mice, compound alone, cell line not given): inhibit colon cancer xenograft growth
apoptosis (Annexin V-FITC assay) ([3]; HCT-116 over-expressing FLIP): much more resistant to BAY 11-7085
apoptosis (Annexin V-FITC assay) ([3]; control (empty vector) HCT-116): induced apoptosis
TRAF-1 and TRAF-2 protein expression [4]: decrease in the protein expression of both TRAF-1 and TRAF-2 proteins
c-IAP-1 protein expression [5]: No decrease in c-IAP-1 protein expression
